Laboratory results reported in the supplement of paper PMC13380429.
± gives the standard deviation of the averaged measurements.

How the values were obtained:
Conditions in all cases: 72 h
[1] = system: Caco-2; experiment: cell viability relative to DMSO; higher = less toxic
[2] = system: Vero E6; experiment: as above
[3] = system: Calu-3; experiment: as above
[4] = system: HepG2; experiment: as above
[5] = system: U2OS; experiment: as above
[6] = system: Caco-2; experiment: relative viability EC50 (midpoint between 100% and the lowest measured viability); higher = less toxic
[7] = system: Vero E6; experiment: as above
[8] = system: Calu-3; experiment: as above
[9] = system: HepG2; experiment: as above
[10] = system: U2OS; experiment: as above
[11] = system: Caco-2; experiment: drug sensitivity score (DSS) for viability; higher = more toxic; extreme values may be limits of the assay
[12] = system: Vero E6; experiment: as above
[13] = system: Calu-3; experiment: as above
[14] = system: HepG2; experiment: as above
[15] = system: U2OS; experiment: as above

SMILES | cell viability ([1]; 1 nM) [%] | cell viability ([1]; 10 nM) [%] | cell viability ([1]; 100 nM) [%] | cell viability ([1]; 1000 nM) [%] | cell viability ([1]; 10000 nM) [%] | cell viability ([2]; 1 nM) [%] | cell viability ([2]; 10 nM) [%] | cell viability ([2]; 100 nM) [%] | cell viability ([2]; 1000 nM) [%] | cell viability ([2]; 10000 nM) [%] | cell viability ([3]; 1 nM) [%] | cell viability ([3]; 10 nM) [%] | cell viability ([3]; 100 nM) [%] | cell viability ([3]; 1000 nM) [%] | cell viability ([3]; 10000 nM) [%] | cell viability ([4]; 1 nM) [%] | cell viability ([4]; 10 nM) [%] | cell viability ([4]; 100 nM) [%] | cell viability ([4]; 1000 nM) [%] | cell viability ([4]; 10000 nM) [%] | cell viability ([5]; 1 nM) [%] | cell viability ([5]; 10 nM) [%] | cell viability ([5]; 100 nM) [%] | cell viability ([5]; 1000 nM) [%] | cell viability ([5]; 10000 nM) [%] | relative viability EC50 [6] [µM] | relative viability EC50 [7] [µM] | relative viability EC50 [8] [µM] | relative viability EC50 [9] [µM] | relative viability EC50 [10] [µM] | drug sensitivity score [11] | drug sensitivity score [12] | drug sensitivity score [13] | drug sensitivity score [14] | drug sensitivity score [15]
CC(=O)N[C@H](Cc1ccc2ccccc2c1)C(=O)N[C@H](Cc1ccc(Cl)cc1)C(=O)N[C@H](Cc1cccnc1)C(=O)N[C@@H](CO)C(=O)N[C@@H](Cc1ccc(NC(=O)[C@@H]2CC(=O)NC(=O)N2)cc1)C(=O)N[C@H](Cc1ccc(NC(N)=O)cc1)C(=O)N[C@@H](CC(C)C)C(=O)N[C@@H](CCCCNC(C)C)C(=O)N1CCC[C@H]1C(=O)N[C@H](C)C(N)=O [degarelix] | 90.3 | 92.8 | 99.9 | 90.4 | 99.6 | 95.6 | 93.8 | 92 | 89.8 | 101 | 103 | 104 | 91.7 | 91.9 | 96.6 | 103 | 80.7 | 112 | 91 | 110 | 97.1 | 97 | 98.7 | 99.9 | 101 | > 10 | > 10 | > 10 | > 10 | > 10 | 0 | 0 | 0 | 0 | 0
CCN[C@@H](C)Cc1cccc(C(F)(F)F)c1 [dexfenfluramine] | 105 | 114 | 89.8 | 108 | 106 | 99.4 | 92.7 | 100 | 90.7 | 94.7 | 97.4 | 109 | 105 | 118 | 113 | 106 | 93.7 | 105 | 82.9 | 97.5 | 93.5 | 96.7 | 96.1 | 94.3 | 101 | > 10 | > 10 | > 10 | > 10 | > 10 | 0 | 0 | 0 | 0 | 0
COC(=O)C1=C(C)NC(C)=C(C(=O)OCCCN2CCC(c3ccccc3)(c3ccccc3)CC2)[C@@H]1c1cccc([N+](=O)[O-])c1 [dexniguldipine] | 99.8 ± 0.28 | 100 ± 0.71 | 97.7 ± 7.6 | 91.4 ± 0.42 | 40.8 ± 7.7 | 94 ± 1.9 | 99.7 ± 2.5 | 95 ± 3.6 | 94.35 ± 0.92 | 39.5 ± 2.3 | 103.7 ± 0.42 | 94 ± 2.3 | 104.1 ± 0.71 | 99.2 ± 7.6 | 15.8 ± 14 | 102 ± 14 | 101 ± 3.4 | 94.7 ± 3.8 | 102 ± 3 | 16.8 ± 2 | 102 ± 2.6 | 102 ± 2.5 | 100.8 ± 0.21 | 94.3 ± 7.8 | 20.8 ± 17 | 2.01 | 2.39 | 3.03 | 3.26 | 2.61 | 4.65 ± 0.49 | 4.2 | 4.95 ± 1.8 | 4.5 ± 0.14 | 5.3 ± 2.3
O=C(NC(O)C(Cl)(Cl)Cl)NC(O)C(Cl)(Cl)Cl (stereo not given) [dicloralurea] | 96.6 | 114 | 111 | 102 | 90.1 | 97.6 | 101 | 95.2 | 92.4 | 103 | 94.1 | 96.2 | 102 | 86.9 | 99.5 | 96.2 | 107 | 109 | 104 | 97.4 | 97 | 92.4 | 97.6 | 94.4 | 103 | > 10 | > 10 | > 10 | > 10 | > 10 | 0 | 0 | 0 | 0 | 0
C[C@@H]1CC[C@@]2(OC1)O[C@H]1C[C@H]3[C@@H]4CC=C5C[C@@H](O)CC[C@]5(C)[C@H]4CC[C@]3(C)[C@H]1[C@@H]2C [diosgenin] | 105 | 97.9 | 101 | 94.5 | 101 | 102 | 107 | 102 | 103 | 98.1 | 96.8 | 91.3 | 84.2 | 95.4 | 95.4 | 101 | 105 | 98.8 | 102 | 106 | 95.9 | 99.1 | 101 | 99.9 | 98.1 | > 10 | > 10 | > 10 | > 10 | > 10 | 0 | 0 | 0 | 0 | 0
CCCCCCCCCCCCOS(=O)(=O)O [dodecyl-sulfate] | 101 ± 8.6 | 99.5 ± 16 | 102 ± 3.1 | 99.2 ± 3.1 | 106 ± 27 | 100 ± 5.2 | 102 ± 7.9 | 95.7 ± 5.3 | 104 ± 1.7 | 101 ± 6.7 | 106 ± 17 | 94.5 ± 9 | 103 ± 4.2 | 90.5 ± 6.3 | 106 ± 3.5 | 106 ± 15 | 106 ± 12 | 102 ± 7 | 99.6 ± 5.7 | 92.1 ± 3.1 | 100 ± 4.9 | 93.5 ± 0.28 | 102 ± 4 | 91.7 ± 0.28 | 100 ± 4.6 | > 10 | > 10 | > 10 | > 10 | > 10 | 0.05 ± 0.071 | 0 | 0 | 0 | 0
